Assay results from patent US20250333407A1, “Compounds and Their Use for Treatment of Hemoglobinopathies” (Bristol-Myers Squibb Company, priority 2024, published 2025).

Columns and labels:
Assay type in all cases: cell-based
HbF = HbF HiBiT induction assay in HUDEP-2 cells; details: HUDEP-2 cells with HiBiT tag in HBG1/2, 72 hours of treatment; area under the dose response curve, higher AUC = greater HbF induction
Method: HbF HiBiT induction assay. The HiBiT induction assay for HbF in HUDEP-2 cells was performed as described below. HUDEP-2 cells engineered to express a HiBiT tag in HBG1/2 were maintained at a density of 0.1-1×10^6 cells/ml in StemSpan SFEM II supplemented with 1% penicillin/streptomycin, hSCF (50 ng/mL), erythropoietin (EPO; 3 IU/mL), dexamethasone (DEX; 0.4 μg/mL), and doxycycline hyclate (DOX; 1 μg/mL). The cells were cultured in low adherence flasks, in a humidified incubator, set at 37° C. with 5% CO2. Cell counts and viability were measured by trypan blue exclusion using the Vi-CELL XR cell viability analyzer and the cell growth was consistently maintained in log phase.
Prior to the start of experiments, HbF HiBiT-tagged HUDEP-2 cells were transferred to a 50 mL conical and centrifuged at 500×g for 5 minutes, the supernatant removed, and the pellet washed in 5 mL of 1×PBS. The washed cells were centrifuged again at 500×g for 5 minutes and resuspended in IMDM containing; 1×glutamine, 1×penicillin/streptomycin, holo-transferrin (330 μg/mL), heparin (2 IU/mL), r-human insulin (10 μg/mL), EPO (3 IU/mL), 5% human plasma, hSCF (100 ng/mL) and DOX (1 μg/mL) to a final density of 0.3×10^6 cells/mL. Forty microliters of cell suspension were dispensed into 384-well Low Flange White Flat Bottom Polystyrene TC-treated Microplates containing pre-dispensed compounds, using a VIAFLO 384 liquid hander, and placed in a humidified incubator at 37° C. with 5% CO2. […] After 72 hours of treatment, 40 μL of Nano-Glo HiBiT Lytic Solution (prepared according to manufacturer's instructions) were dispensed into each well using a VIAFLO 384 liquid handler, and the plates were shaken for 20 seconds. Plates were incubated for 20 minutes at room temperature, and the luminescence was read as relative luminescent units using an EnVision plate reader.
Dose response curves were generated, and EC50, Ymax, and then area under the curve (AUC) values were calculated. HbF induction was measured using the calculated area under the curve (AUC) value, with higher AUC values indicative of greater HbF induction relative to lower AUC values.

WIZ = target: T1, WIZ (Homo sapiens, UniProt O95785+Q96SW2); assay: HUDEP-2 WIZ HiBiT degradation assay; details: HiBiT-tagged WIZ degradation in HUDEP-2 cells, 24 hours of treatment; read-out: WIZ EC50
T1 construct: HUDEP-2 cells engineered to express a HiBiT tag in either the WIZ (Widely interspaced zinc finger) or ZBTB7A
T1 sequence (O95785 whole entry): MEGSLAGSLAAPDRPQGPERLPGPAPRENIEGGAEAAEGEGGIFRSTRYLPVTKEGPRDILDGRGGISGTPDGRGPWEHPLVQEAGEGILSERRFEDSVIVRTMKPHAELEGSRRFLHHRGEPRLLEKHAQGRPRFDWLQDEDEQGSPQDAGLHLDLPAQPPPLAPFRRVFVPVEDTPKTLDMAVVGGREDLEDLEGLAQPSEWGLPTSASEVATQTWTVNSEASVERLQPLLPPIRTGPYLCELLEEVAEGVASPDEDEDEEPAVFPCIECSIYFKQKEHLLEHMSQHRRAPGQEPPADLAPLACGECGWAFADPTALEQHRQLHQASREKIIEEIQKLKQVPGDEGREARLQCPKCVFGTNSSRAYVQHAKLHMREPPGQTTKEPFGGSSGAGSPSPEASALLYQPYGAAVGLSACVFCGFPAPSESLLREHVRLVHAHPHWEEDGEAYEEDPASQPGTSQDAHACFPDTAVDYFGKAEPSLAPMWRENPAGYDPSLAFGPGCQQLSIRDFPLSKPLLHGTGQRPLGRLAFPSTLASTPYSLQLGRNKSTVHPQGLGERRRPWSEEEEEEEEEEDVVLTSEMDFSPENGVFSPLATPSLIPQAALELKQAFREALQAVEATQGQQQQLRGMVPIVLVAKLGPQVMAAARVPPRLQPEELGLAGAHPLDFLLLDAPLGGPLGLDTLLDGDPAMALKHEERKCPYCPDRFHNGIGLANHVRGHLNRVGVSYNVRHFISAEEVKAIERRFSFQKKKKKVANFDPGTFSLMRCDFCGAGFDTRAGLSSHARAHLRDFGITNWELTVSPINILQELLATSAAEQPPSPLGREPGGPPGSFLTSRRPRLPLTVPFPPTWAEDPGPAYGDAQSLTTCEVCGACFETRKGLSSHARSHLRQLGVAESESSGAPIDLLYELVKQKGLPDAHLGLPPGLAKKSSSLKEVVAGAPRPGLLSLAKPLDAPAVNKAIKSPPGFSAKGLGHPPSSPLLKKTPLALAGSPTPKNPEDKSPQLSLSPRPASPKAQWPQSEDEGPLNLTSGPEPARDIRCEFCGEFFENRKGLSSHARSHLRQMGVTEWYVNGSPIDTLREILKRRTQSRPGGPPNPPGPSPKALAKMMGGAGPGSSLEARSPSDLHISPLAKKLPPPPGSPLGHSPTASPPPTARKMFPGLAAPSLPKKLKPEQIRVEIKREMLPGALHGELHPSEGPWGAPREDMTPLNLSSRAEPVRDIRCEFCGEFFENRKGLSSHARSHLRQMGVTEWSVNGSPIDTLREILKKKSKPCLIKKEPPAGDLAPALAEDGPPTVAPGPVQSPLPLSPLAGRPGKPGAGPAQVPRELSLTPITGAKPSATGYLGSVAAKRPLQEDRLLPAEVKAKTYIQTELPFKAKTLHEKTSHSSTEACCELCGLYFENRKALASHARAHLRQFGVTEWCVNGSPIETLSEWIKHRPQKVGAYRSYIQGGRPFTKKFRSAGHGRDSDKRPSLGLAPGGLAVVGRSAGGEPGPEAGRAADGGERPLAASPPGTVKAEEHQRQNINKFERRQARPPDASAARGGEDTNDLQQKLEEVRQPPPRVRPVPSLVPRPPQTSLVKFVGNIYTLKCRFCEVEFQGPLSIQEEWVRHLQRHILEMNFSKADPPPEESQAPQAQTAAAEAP
T1 sequence (Q96SW2 whole entry): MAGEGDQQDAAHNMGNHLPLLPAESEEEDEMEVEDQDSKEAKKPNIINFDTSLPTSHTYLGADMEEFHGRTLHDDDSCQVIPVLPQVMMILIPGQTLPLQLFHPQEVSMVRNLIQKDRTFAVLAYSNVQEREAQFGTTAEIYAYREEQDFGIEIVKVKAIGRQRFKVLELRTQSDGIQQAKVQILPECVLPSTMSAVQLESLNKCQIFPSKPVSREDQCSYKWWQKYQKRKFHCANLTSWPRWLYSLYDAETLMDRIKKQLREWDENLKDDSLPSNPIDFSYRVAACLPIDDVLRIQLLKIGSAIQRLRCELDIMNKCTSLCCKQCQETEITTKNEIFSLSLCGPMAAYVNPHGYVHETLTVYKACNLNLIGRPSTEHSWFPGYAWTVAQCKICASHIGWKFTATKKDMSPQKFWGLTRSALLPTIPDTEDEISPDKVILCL
T1 sequence (Q16531 whole entry partner): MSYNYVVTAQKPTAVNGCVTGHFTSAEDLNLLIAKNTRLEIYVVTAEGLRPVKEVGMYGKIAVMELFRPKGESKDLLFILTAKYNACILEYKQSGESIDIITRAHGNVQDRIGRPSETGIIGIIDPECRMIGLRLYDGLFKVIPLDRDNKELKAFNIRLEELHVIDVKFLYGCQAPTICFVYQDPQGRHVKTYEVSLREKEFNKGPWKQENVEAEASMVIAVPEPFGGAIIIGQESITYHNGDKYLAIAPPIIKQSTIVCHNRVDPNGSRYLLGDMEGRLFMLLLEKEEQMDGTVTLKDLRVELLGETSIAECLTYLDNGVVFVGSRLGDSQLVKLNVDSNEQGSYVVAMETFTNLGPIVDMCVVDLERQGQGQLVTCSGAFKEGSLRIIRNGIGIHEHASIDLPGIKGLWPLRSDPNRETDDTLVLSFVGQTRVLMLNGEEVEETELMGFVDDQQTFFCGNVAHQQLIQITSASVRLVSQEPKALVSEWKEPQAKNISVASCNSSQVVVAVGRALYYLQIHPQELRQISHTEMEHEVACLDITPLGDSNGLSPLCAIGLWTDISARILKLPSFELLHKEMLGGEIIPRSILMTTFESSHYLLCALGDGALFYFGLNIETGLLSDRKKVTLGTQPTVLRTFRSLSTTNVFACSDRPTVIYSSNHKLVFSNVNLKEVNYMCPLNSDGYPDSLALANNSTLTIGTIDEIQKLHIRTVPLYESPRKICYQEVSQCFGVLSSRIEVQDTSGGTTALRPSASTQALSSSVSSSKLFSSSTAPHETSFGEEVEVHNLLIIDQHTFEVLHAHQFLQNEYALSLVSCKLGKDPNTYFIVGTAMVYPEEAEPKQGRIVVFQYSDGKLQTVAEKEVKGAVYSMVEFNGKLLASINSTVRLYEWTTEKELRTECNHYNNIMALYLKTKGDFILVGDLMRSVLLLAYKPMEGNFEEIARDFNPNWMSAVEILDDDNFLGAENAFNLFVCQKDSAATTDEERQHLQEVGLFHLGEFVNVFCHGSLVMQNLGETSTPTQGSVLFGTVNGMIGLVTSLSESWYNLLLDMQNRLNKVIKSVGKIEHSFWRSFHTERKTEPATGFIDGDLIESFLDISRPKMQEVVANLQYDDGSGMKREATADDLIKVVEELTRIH
Method: (§1) WIZ Assay and ZBTB7A EC50 Assays. The HiBiT degradation assays for WIZ and ZBTB7A in HUDEP-2 cells were performed as described below. HUDEP-2 cells engineered to express a HiBiT tag in either the WIZ (Widely interspaced zinc finger) or ZBTB7A (Zinc Finger And BTB Domain Containing 7A) proteins were maintained in low attachment flasks in StemSpan SFEM II media supplemented with Penicillin-Streptomycin (50 U/mL), rhSCF (50 ng/mL), rhEPO (3 IU/mL), dexamethasone (0.4 μg/mL) and doxycycline (1 μg/mL). Prior to start of the assay, cell count and viability were measured by trypan blue exclusion using the Vi-cell XR cell viability analyzer.
For the HUDEP-2 WIZ HiBiT assay, cells were transferred to a 50 mL conical and centrifuged at 500 g for five minutes. Cells were resuspended in fresh StemSpan SFEM II media supplemented with Penicillin-Streptomycin (50 U/mL), rhSCF (50 ng/mL), rhEPO (3 IU/mL), dexamethasone (0.4 μg/mL) and doxycycline (1 μg/mL) at a density of 1.0×10^6 cells/ml. Forty microliters of cell suspension was dispensed into 384-well Low Flange White Flat Bottom Polystyrene TC-treated Microplates containing pre-dispensed compounds, using a VIAFLO 384 liquid hander, and placed in a 37° C. incubator with 5% CO2. […] After 24 hours of treatment, 40 μL Nano-Glo HiBiT Lytic Detection System reagent was dispensed into each well using a VIAFLO 384 liquid hander. Plates were incubated for 25 minutes at room temperature and the luminescence was read as relative luminescent units using the EnVision plate reader. EC50 and Y-min values were calculated using curves calculated from dotmatics software after the normalization to the DMSO control of 10 different concentrations: 10, 3.33, 1.11, 0.37, 0.12, 0.04 0.0137, 0.0046, 0.0015 and […] respectively.

ZBTB7A = target: T2, ZBTB7A (Homo sapiens, UniProt O95365+Q96SW2); assay: HUDEP-2 ZBTB7A HiBiT degradation assay; details: HiBiT-tagged ZBTB7A degradation in HUDEP-2 cells, 24 hours of treatment; read-out: ZBTB7A EC50
T2 construct: HUDEP-2 cells engineered to express a HiBiT tag in either the WIZ (Widely interspaced zinc finger) or ZBTB7A
T2 sequence (O95365 whole entry): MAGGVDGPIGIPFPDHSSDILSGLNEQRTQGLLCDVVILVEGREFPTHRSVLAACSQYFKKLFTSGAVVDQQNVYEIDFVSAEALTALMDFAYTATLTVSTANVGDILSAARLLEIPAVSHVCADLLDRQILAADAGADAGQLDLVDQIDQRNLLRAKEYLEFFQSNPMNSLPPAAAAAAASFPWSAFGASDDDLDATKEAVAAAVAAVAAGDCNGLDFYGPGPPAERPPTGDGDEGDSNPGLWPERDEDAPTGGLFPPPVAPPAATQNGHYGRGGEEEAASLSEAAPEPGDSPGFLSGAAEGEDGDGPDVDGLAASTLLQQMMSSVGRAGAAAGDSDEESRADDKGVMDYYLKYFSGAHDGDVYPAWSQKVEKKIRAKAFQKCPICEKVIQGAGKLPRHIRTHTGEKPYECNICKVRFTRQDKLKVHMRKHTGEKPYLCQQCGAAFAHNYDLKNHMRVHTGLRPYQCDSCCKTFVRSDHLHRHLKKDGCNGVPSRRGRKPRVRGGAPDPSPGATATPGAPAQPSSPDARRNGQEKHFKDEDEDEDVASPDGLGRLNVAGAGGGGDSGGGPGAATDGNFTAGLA
T2 sequence (Q96SW2 whole entry): as the sequence (Q96SW2 whole entry) above
T2 sequence (Q16531 whole entry partner): as the sequence (Q16531 whole entry partner) above
Method: as §1
For the HUDEP-2 ZBTB7A HiBiT assay, cell count and viability were measured by trypan blue exclusion using the Vi-cell XR cell viability analyzer and the cells were transferred to a 50 mL conical and centrifuged at 500 g for five minutes. Cells were resuspended in fresh IMDM media supplemented with L-Glutamine (1×), Penicillin-Streptomycin (50 U/mL), holo-transferrin (330 μg/mL), heparin (2 IU/mL), r-human Insulin (10 μg/mL), rhEPO (3 IU/mL), rhSCF (100 ng/mL)+Dox (1 μg/mL) and 5% human plasma in low attachment flasks, which were placed in a 37° C. incubator with 5% CO2. After 48 hours, cell count and viability were measured by trypan blue exclusion using the Vi-cell XR cell viability analyzer. The HUDEP-2 ZBTB7A cells were transferred to a 50 mL conical, centrifuged at 500 g for five minutes and resuspended at a density of 1.0×10^6 cells/ml in IMDM media supplemented with L-Glutamine (1×), Penicillin-Streptomycin (50 U/mL), holo-transferrin (330 μg/mL), heparin (2 IU/mL), r-human Insulin (10 μg/mL), rhEPO (3 IU/mL), rhSCF (100 ng/mL)+Dox (1 μg/mL) and 5% human plasma. Forty microliters of cell suspension was dispensed into 384-well Low Flange White Flat Bottom Polystyrene TC-treated Microplates containing pre-dispensed compounds, using a VIAFLO 384 liquid hander, and placed in a 37° C. incubator with 5% CO2. […] After 24 hours of treatment, 40 μL Nano-Glo HiBiT Lytic Detection System reagent was dispensed into each well using a VIAFLO 384 liquid hander. Plates were incubated for 25 minutes at room temperature and the luminescence was read as relative luminescent units using the EnVision plate reader. EC50 and Y-min values were calculated using curves calculated from dotmatics software after the normalization to the DMSO control of 10 different concentrations: 10, 3.33, 1.11, 0.37, 0.12, 0.04 0.0137, 0.0046, 0.0015 and […] respectively.

Structure (SMILES)	DC50 (WIZ) [nM]	DC50 (ZBTB7A) [nM]	HBF AUC (HbF)
Cc1cncc(-c2c(Nc3cccc4c3C(=O)N([C@H]3CCC(=O)NC3=O)C4=O)cc3c(c2F)OCC(=O)N3C)c1 [Compound 69, (S)-2-(2,6-dioxopiperidin-3-yl)-4-((8-fluoro-4-methyl-7-(5-methylpyridin-3-yl)-3-oxo-3,4-dihydro-2H-benzo[b][1,4]oxazin-6-yl)amino)isoindoline-1,3-dione]	20	54	+ (+ = 15 ≤ AUC < 100)
Cc1cc(-c2nc3c(cc2Nc2cccc4c2C(=O)N([C@H]2CCC(=O)NC2=O)C4=O)N(C)C(=O)CC3)ccn1 [Compound 95, (S)-2-(2,6-dioxopiperidin-3-yl)-4-((5-methyl-2-(2-methylpyridin-4-yl)-6-oxo-5,6,7,8-tetrahydro-1,5-naphthyridin-3-yl)amino)isoindoline-1,3-dione]	89	256	+ (+ = 15 ≤ AUC < 100)
Cc1cc(-c2cc3c(cc2Nc2cccc4c2C(=O)N(C2CCC(=O)NC2=O)C4=O)N(C)CCO3)ccn1 (centres unmarked) [Compound 1, 2-(2,6-dioxopiperidin-3-yl)-4-((4-methyl-7-(2-methylpyridin-4-yl)-3,4-dihydro-2H-benzo[b][1,4]oxazin-6-yl)amino)isoindoline-1,3-dione]	21	18	+ (+ = 15 ≤ AUC < 100)
Cc1cc(-c2c(Nc3cccc4c3C(=O)N([C@H]3CCC(=O)NC3=O)C4=O)cc3c(c2F)[C@@H](C)OC(=O)N3C)c(F)cn1 [Compound 82, 2-((S)-2,6-dioxopiperidin-3-yl)-4-(((4R)-5-fluoro-6-(5-fluoro-2-methylpyridin-4-yl)-1,4-dimethyl-2-oxo-1,4-dihydro-2H-benzo[d][1,3]oxazin-7-yl)amino)isoindoline-1,3-dione]	54	19	++ (++ = 100 ≤ AUC < 150)
CC[C@@H]1Oc2cc(-c3ccnc(C)c3)c(Nc3cccc4c3C(=O)N([C@H]3CCC(=O)NC3=O)C4=O)cc2N(C)C1=O [Compound 20, 2-((S)-2,6-dioxopiperidin-3-yl)-4-(((S)-2-ethyl-4-methyl-7-(2-methylpyridin-4-yl)-3-oxo-3,4-dihydro-2H-benzo[b][1,4]oxazin-6-yl)amino)isoindoline-1,3-dione]	14	12	+ (+ = 15 ≤ AUC < 100)
CCOc1cc(-c2cc3c(cc2Nc2cccc4c2C(=O)N(C2CCC(=O)NC2=O)C4=O)N(C)C(=O)CO3)cc(C)n1 (centres unmarked) [Compound 16, 2-(2,6-dioxopiperidin-3-yl)-4-((7-(2-ethoxy-6-methylpyridin-4-yl)-4-methyl-3-oxo-3,4-dihydro-2H-benzo[b][1,4]oxazin-6-yl)amino)isoindoline-1,3-dione]	32	73	+ (+ = 15 ≤ AUC < 100)
COc1ccc(-c2cc3c(cc2Nc2cccc4c2C(=O)N([C@H]2CCC(=O)NC2=O)C4=O)N(C)C(=O)O[C@H]3C)cc1F [Compound 71, 2-((S)-2,6-dioxopiperidin-3-yl)-4-(((S)-6-(3-fluoro-4-methoxyphenyl)-1,4-dimethyl-2-oxo-1,4-dihydro-2H-benzo[d][1,3]oxazin-7-yl)amino)isoindoline-1,3-dione]	16	10	++ (++ = 100 ≤ AUC < 150)
Cc1cc(-c2cc3c(cc2Nc2cccc4c2C(=O)N(C2CCC(=O)NC2=O)C4=O)N(C)C(=O)C(C)(C)C3)ccn1 (centres unmarked) [Compound 85, 2-(2,6-dioxopiperidin-3-yl)-4-((1,3,3-trimethyl-6-(2-methylpyridin-4-yl)-2-oxo-1,2,3,4-tetrahydroquinolin-7-yl)amino)isoindoline-1,3-dione]	26	43	–

Compounds with a lower DC50 (WIZ), results first:

DC50 (WIZ) [nM]	DC50 (ZBTB7A) [nM]	Structure (SMILES)	HBF AUC (HbF)
7	11	Cc1cc(-c2cc3c(cc2Nc2cccc4c2C(=O)N([C@H]2CCC(=O)NC2=O)C4=O)N(C)C(=O)CO3)c(F)cn1 [Compound 61, (S)-2-(2,6-dioxopiperidin-3-yl)-4-((7-(5-fluoro-2-methylpyridin-4-yl)-4-methyl-3-oxo-3,4-dihydro-2H-benzo[b][1,4]oxazin-6-yl)amino)isoindoline-1,3-dione]	++ (++ = 100 ≤ AUC < 150)
5	14	CC(=O)N1CCC(c2cc3c(cc2Nc2cccc4c2C(=O)N([C@H]2CCC(=O)NC2=O)C4=O)N(C)C(=O)[C@@H](C)O3)CC1 [Compound 32, 4-(((R)-7-(1-acetylpiperidin-4-yl)-2,4-dimethyl-3-oxo-3,4-dihydro-2H-benzo[b][1,4]oxazin-6-yl)amino)-2-((S)-2,6-dioxopiperidin-3-yl)isoindoline-1,3-dione]	+++ (+++ = AUC ≥ 150)
5	23	COc1cc(-c2cc3c(cc2Nc2cccc4c2C(=O)N([C@H]2CCC(=O)NC2=O)C4=O)N(C)C(=O)[C@H](C)O3)c(F)cn1 [Compound 29, 2-((S)-2,6-dioxopiperidin-3-yl)-4-(((S)-7-(5-fluoro-2-methoxypyridin-4-yl)-2,4-dimethyl-3-oxo-3,4-dihydro-2H-benzo[b][1,4]oxazin-6-yl)amino)isoindoline-1,3-dione]	+ (+ = 15 ≤ AUC < 100)
8	60	Cc1cc(-c2cc3c(cc2Nc2cccc4c2C(=O)N([C@H]2CCC(=O)NC2=O)C4=O)N(C2CC2)C(=O)CC3)ccn1 [Compound 88, (S)-4-((1-cyclopropyl-6-(2-methylpyridin-4-yl)-2-oxo-1,2,3,4-tetrahydroquinolin-7-yl)amino)-2-(2,6-dioxopiperidin-3-yl)isoindoline-1,3-dione]	+ (+ = 15 ≤ AUC < 100)
